The record followed here is patent publication EP0000322A1, “Compounds having an anti-depressive or tranquilizing activity, pharmaceutical compositions containing them, and processes and intermediates for their preparation” (priority 1977, dated 1979).

For test [1], the system named is neuronal uptake of 5-hydroxytryptamine. Description: Inhibition of the uptake of 14C-5-HT in brain slices after in vivo (i.p.) administration. The arrangement: species or system mice. The conditions noted are these: for Inhibition of the uptake in vivo i.p. ED50 5-HT: 30 min; for ED50: Mus musculus, ip, 0.5 h. As to the method:
(§1) The test method described in Europ. J. Pharmacol. 17, 107, 1972. This method involves the measurement of the decrease in the uptake of ^14C-5-hydroxytryptamine (^14C-5-HT) and ^3H- -noradrenaline (^3H-NA) in brain slices from mice after in vivo and in vitro administration of the test substance.
(§2) The test substances were administered intraperitoneally half an hour before the animals were killed. The midbrain was taken out, sliced and incubated in a mixture consisting of 0.2 nmole of ^14C-5-HT, 0.2 nmole of ^3H-NA and 11 µmole of glucose in 2 ml of Krebs Henseleit-buffer, pH 7.4 per 100 mg of brain slices. The incubation time was 5 minutes with 5 minutes of preincubation before the labelled amines were added. The slices were dissolved in Soluene and the amounts of radioactive amines taken u^p were determined by liquid scintillation. The doses producing 50 per cent decrease of the active uptake (ED50) of ^14C-5-HT and ^3H-NA were determined graphically from dose response curves. Active uptake is defined as that part of the radioactive uptake which is inhibited by a high concentration of cocaine.

The test system of test [2] is neuronal uptake of noradrenaline. Description: Inhibition of the uptake of 3H-NA in brain slices after in vivo (i.p.) administration. More on the design: species or system mice. The conditions noted are these: for Inhibition of the uptake in vivo i.p. ED50 NA: 30 min; for ED50: Mus musculus, ip, 0.5 h. As for the experimental part:
as §1, §2

In test [3] the target is neuronal uptake of noradrenaline (Mus musculus, UniProt O55192). The experiment in a line: Inhibition of the uptake of 3H-NA in mouse midbrain slices, in vitro administration. Type of test: cell-based. Conditions: slices from mouse brain (midbrain), 5 min preincubation with compound. As to the method: as §1
as §2, with “Active uptake is defined as that part of the radioactive uptake which is inhibited by a high concentration of cocaine.” left out
(§3) In the vitro administration method slices of mouse midbrain were preincubated for 5 minutes with solution of the compound to be tested and then incubated as described above. The concentration producing 50 per cent inhibition of the active uptake IC50 of ^14C-5-HT and 3-H-NA was determined graphically from dose response curves.

Test [4] deals with neuronal uptake of 5-hydroxytryptamine and noradrenaline. Description: Overall assessment of the uptake tests (selectivity NA versus 5-HT). The arrangement: species or system mouse. Conditions: summary of the results of Table I.
Test [5] deals with neuronal uptake of 5-hydroxytryptamine (Mus musculus, UniProt Q60857). Description: Inhibition of the uptake of 14C-5-HT in mouse midbrain slices, in vitro administration. Type of test: cell-based. The conditions noted are these: slices from mouse brain (midbrain), 5 min preincubation with compound. As to the method: as §1
as §2, with “Active uptake is defined as that part of the radioactive uptake which is inhibited by a high concentration of cocaine.” left out
as §3

[6] abbreviates: i.p. half an hour before the animals were killed, midbrain slices.
Where [7] appears, read: i.p. half an hour before the animals were killed, midbrain slices, read-out: Inhibition of the uptake in vivo i.p. ED50 5-HT.
[8] abbreviates: i.p. half an hour before the animals were killed, midbrain slices, read-out: Inhibition of the uptake in vivo i.p. ED50 NA.
[9] abbreviates: read-out: Inhibition of the uptake in vivo i.p. ED50 NA, i.p. half an hour before the animals were killed, midbrain slices.
Where [10] appears, read: read-out: Inhibition of the uptake in vivo i.p. ED50 5-HT, i.p. half an hour before the animals were killed, midbrain slices.
Setting [11] is: i.p. half an hour before the animals were killed, midbrain slices, hydrochloride.

pIC50: −log10 of the molar value. Structures can show the parent of a compound that is named as a salt. Where two headings read alike, the source gives them in different places. Some results are limits rather than exact numbers.

neuronal uptake of noradrenaline (Mus musculus, UniProt O55192), sequence (O55192 whole entry): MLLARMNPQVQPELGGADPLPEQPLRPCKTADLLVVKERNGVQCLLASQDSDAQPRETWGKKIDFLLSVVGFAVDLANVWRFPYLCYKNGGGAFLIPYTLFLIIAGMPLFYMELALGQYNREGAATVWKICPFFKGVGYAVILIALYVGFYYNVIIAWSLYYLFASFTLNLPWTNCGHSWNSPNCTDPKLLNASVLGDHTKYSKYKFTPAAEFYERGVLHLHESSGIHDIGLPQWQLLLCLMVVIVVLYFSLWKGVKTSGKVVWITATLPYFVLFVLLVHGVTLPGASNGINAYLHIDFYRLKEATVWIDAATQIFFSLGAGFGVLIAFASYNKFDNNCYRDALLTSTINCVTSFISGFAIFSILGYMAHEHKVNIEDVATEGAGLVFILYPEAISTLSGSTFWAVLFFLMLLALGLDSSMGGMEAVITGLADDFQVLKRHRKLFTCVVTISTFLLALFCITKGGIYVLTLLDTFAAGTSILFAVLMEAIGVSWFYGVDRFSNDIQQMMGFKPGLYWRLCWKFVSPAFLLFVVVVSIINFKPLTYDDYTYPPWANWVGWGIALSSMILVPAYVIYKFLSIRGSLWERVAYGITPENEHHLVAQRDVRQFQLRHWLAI
neuronal uptake of 5-hydroxytryptamine (Mus musculus, UniProt Q60857), sequence (Q60857 whole entry): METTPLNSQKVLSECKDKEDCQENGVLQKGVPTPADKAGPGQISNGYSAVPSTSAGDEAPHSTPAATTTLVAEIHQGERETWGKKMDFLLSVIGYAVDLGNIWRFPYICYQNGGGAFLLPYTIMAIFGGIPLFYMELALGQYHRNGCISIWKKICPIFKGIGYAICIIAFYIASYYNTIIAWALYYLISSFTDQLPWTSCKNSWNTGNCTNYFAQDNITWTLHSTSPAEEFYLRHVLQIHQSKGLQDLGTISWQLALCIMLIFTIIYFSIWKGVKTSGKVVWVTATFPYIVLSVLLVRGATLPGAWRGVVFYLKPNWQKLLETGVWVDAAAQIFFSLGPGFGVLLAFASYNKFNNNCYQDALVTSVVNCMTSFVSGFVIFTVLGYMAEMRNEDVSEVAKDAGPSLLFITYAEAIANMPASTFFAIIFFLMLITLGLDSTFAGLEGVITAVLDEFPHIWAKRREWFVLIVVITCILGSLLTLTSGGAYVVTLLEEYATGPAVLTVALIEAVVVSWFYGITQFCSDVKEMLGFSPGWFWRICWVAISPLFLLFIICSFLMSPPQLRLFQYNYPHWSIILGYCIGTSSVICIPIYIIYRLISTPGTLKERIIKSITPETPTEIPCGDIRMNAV

Turning to `CC(N)CC(c1ccccc1)c1ccccc1Br` (single isomer, unassigned) [CPK 197, (β)-3-(2-bromophenyl)-1-methyl-3--phenyl-propylamine maleate], in test [1] (setting [6]), the “Inhibition of the uptake in vivo i.p. ED50 5-HT” value was above 95 µmol/kg. In addition, the “Inhibition of the uptake in vivo i.p. ED50 NA” value in test [2] (setting [6]) was determined as 28 µmol/kg.
On to `CC(N)/C=C(\c1ccccc1)c1ccc(Br)cc1` (stereo not shown) [CPK 204, (E)-3-amino-1-(4-bromophenyl)-1-phenylbutene oxalate], for which the ED50 (commonly the midpoint of the dose-response relation) came out at 40 µmol/kg in test [1] (setting [7]) and 48 µmol/kg in test [2] (setting [8]).
For `CN(C)CCCN1c2ccccc2CCc2ccc(Cl)cc21` [Chloroimipramine, reference compound], the pIC50 (as a rule, the negative decadic logarithm of the IC50, by convention in mol/L) in test [3] is 6.05. Moreover, the ED50 in test [2] (setting [9]) turned out to be 150 µmol/kg.
With `CC(N)CC(c1ccccc1)c1ccc(C(F)(F)F)cc1` (single isomer, unassigned) [CPK 195, (α)-1-methyl-3-(4-trifluoromethylphenyl)-3-phenylpropylamine maleate], the results for the ED50 in test [1] (setting [10]) and in test [2] (setting [9]) were 98 µmol/kg and above 98 µmol/kg, respectively.
For the compound `CC(N)/C=C(/c1ccccc1)c1cccc(Br)c1` (stereo not shown) [CPK 217, (Z)-3-amino-1-(3-bromophenyl)-1-phenylbutene], the ED50 in test [1] (setting [7]) was 118 µmol/kg; in test [2] (setting [8]), 35 µmol/kg.
Take `CNCC=C(c1ccc(Br)cc1)c1cccnc1` [N-methyl-3-(4-bromophenyl)-3-(3-pyridyl)-allylamine E-isomer, N-methyl-3-(4-bromophenyl)-3-(3-pyridyl)-allylamine, reference compound]: the “Inhibition of the uptake in vivo i.p. ED50 NA” value in test [2] (setting [6]) came out at 25 µmol/kg.
Take `CC(N)CC(c1ccccc1)c1cccc(Br)c1` (single isomer, unassigned) [CPK 184, (β)-3-(3-bromophenyl)-1-methyl-3-phenylpropylamine]: the ED50 in test [1] (setting [7]) was determined as 9.9 µmol/kg; in test [2] (setting [8]), 7.7 µmol/kg. Also, the “activity on uptake of noradrenaline and 5-hydroxytryptamine (assessment in words)” value (“activity on uptake” for short) in test [4] is “pronounced non-selective activity”.
Take `CC(N)CC(c1ccccc1)c1ccccc1Br` (single isomer, unassigned) [CPK 185, (α)-3-(2-bromophenyl)-1-methyl-3-phenylpropylamine maleate]: the “Inhibition of the uptake in vivo i.p. ED50 5-HT” value in test [1] (setting [6]) turned out to be 5.7 µmol/kg. Moreover, the “activity on uptake” value in test [4] is “pronounced selective activity on uptake of noradrenaline”. The “Inhibition of the uptake in vivo i.p. ED50 NA” value in test [2] (setting [6]) came to 4.1 µmol/kg.
As to `CC(N)CC(c1ccccc1)c1ccc(F)cc1` (single isomer, unassigned) [CPK 163, (α)-3-(4-fluorophenyl)-1-methyl-3-phenylpropylamine oxalate], the 50% effective dose (ED50) in test [1] (setting [7]) and in test [2] (setting [8]) was 32 µmol/kg each time.
As for `CC(N)/C=C(/c1ccc(Br)cc1)c1cccnc1` (stereo not shown) [CPP 179], the figures for the ED50 in test [1] (setting [7]) and in test [2] (setting [8]) were 89 µmol/kg and above 89 µmol/kg, respectively.
On the same counts, the results for `Cc1cccc(C(CC(C)N)c2cccc(C)c2)c1` (stereo not shown) [FLA 619, 1,3', 3"-trimethyl-3,3-diphenyl-propylamine oxalate] are 116 µmol/kg and 48 µmol/kg.
For `CC(N)/C=C(\c1ccccc1)c1cccc(Br)c1` (stereo not shown) [CPK 215, (E)-3-amino-1-(3-bromophenyl)-1-phenylbutene], in that order: 96 µmol/kg and 24 µmol/kg.
With `CC(N)CC(c1ccccc1)c1ccc(Br)cc1` (single isomer, unassigned) [CPK 171, (β)-3-(4-bromophenyl)-1-methyl-3-phenylpropylamine], the “Inhibition of the uptake in vivo i.p. ED50 5-HT” value in test [1] (setting [6]) is 29 µmol/kg. For the same compound, the “activity on uptake” value in test [4] was “pronounced non-selective activity”. In test [2] (setting [6]), the “Inhibition of the uptake in vivo i.p. ED50 NA” value was determined as 29 µmol/kg.
Consider `CC(N)CC(c1ccccc1)c1ccc(Br)cc1` (single isomer, unassigned) [CPK 165, (α)-3-(4-bromophenyl)-1-methyl-3-phenylaropylamine maleate], for which the “Inhibition of the uptake in vivo i.p. ED50 5-HT” value in test [1] (setting [6]) was 61 µmol/kg. Moreover, the “Inhibition of the uptake in vivo i.p. ED50 NA” value in test [2] (setting [6]) was 62 µmol/kg.
Regarding `CC(N)C=C(c1ccc(Br)cc1)c1ccc(Br)cc1` (stereo not shown) [FLA 608, 3-amino-1,1-di(4-bromophenyl)-1--butene hydrochloride], the ED50 in test [1] (setting [7]) worked out at 62 µmol/kg; in test [2] (setting [8]), 57 µmol/kg.
As to `CC(N)CC(c1ccc(F)cc1)c1ccc(F)cc1.Cl` (stereo not shown) [FLA 615, 3,3-di-(4-fluorophenyl)-1-methylpropylamine hydrochloride], the ED50 in test [1] (setting [7]) amounted to 29 µmol/kg; in test [2] (setting [8]) it was 57 µmol/kg. The “activity on uptake” value in test [4] is reported as “pronounced selective activity on uptake of 5-hydroxytryptamine”.
For `COc1ccc(C(CC(C)N)c2ccccc2)cc1` (single isomer, unassigned) [CPK 180, (α)-3-(4-methoxyphenyl)-1-methyl-3-phenylpropylamine], the ED50 in test [1] (setting [10]) amounted to 54 µmol/kg; in test [2] (setting [9]), 78 µmol/kg.
With `COc1ccc(C(CC(C)N)c2ccccc2)cc1` (single isomer, unassigned) [CPK 198, (β)-3-(4-methoxyphenyl)-1-methyl-3-phenylpropylamine], the “Inhibition of the uptake in vivo i.p. ED50 5-HT” value in test [1] (setting [6]) stood at 33 µmol/kg. Further, the “activity on uptake” value in test [4] is on record as “pronounced selective activity on uptake of 5-hydroxytryptamine”. In addition, in test [2] (setting [6]), the “Inhibition of the uptake in vivo i.p. ED50 NA” value is 52 µmol/kg.
Consider `CC(N)CC(c1ccccc1)c1ccc(C(F)(F)F)cc1` (single isomer, unassigned) [CPK 199, (β)-1-methyl-3-(4-trifluoromethylphenyl)-3-phenylpropylamine maleate], for which the “Inhibition of the uptake in vivo i.p. ED50 5-HT” value in test [1] (setting [6]) is above 98 µmol/kg. The “Inhibition of the uptake in vivo i.p. ED50 NA” value in test [2] (setting [6]) is above 98 µmol/kg.
Take `CC(N)C=C(c1ccc(F)cc1)c1ccc(F)cc1` (stereo not shown) [FLA 613, 3-amino-1,1-di-(4-fluorphenyl)-1-butene fumarate]: the ED50 was 38 µmol/kg in test [1] (setting [7]) and 106 µmol/kg in test [2] (setting [8]).
Regarding “(Z)-3-amino-1-(4-bromophenyl)-1--phenylbutene maleate [CPK 150]”, in test [1] (setting [6]), the “Inhibition of the uptake in vivo i.p. ED50 5-HT” value was above 96 µmol/kg. Also, the results for the pIC50 in test [3] and in test [5] were 5.70 and 5.52, respectively. Also, the “Inhibition of the uptake in vivo i.p. ED50 NA” value in test [2] (setting [6]) is 96 µmol/kg.
For `CC(N)CC(c1ccccc1)c1ccc(F)cc1` (single isomer, unassigned) [CPK 170, (β)-3-(4-fluorophenyl)-1--methyl-3-phenylpropylamine hydrochloride], the “Inhibition of the uptake in vivo i.p. ED50 5-HT” value in test [1] (setting [11]) amounted to 37 µmol/kg. For the same compound, the “activity on uptake” value in test [4] is “pronounced non-selective activity”. For the same compound, in test [2] (setting [11]), the “Inhibition of the uptake in vivo i.p. ED50 NA” value came out at 34 µmol/kg.
As to `CC(N)CC(c1ccccc1)c1ccccc1` (stereo not shown) [3,3-diphenyl-1-methylpropylamine fumarate, reference compound], the ED50 is 75 µmol/kg in test [1] (setting [7]) and 50 µmol/kg in test [2] (setting [8]).
As to `CNC(C)CC(c1ccccc1)c1ccc(Br)cc1` (stereo not shown) [CPK 187, N, 1-dimethyl-3(4-bromophenyl)--3-phenylpropylamine], the ED50 in test [1] (setting [7]) was 98 µmol/kg; in test [2] (setting [8]) it was above 98 µmol/kg.
On the same counts, the results for `COc1ccc(C(CC(C)N)c2ccc(OC)cc2)cc1` (stereo not shown) [FLA 614, 3,3-di-(4-methoxyphenyl)-1-methyl--propylamine fumarate] are 25 µmol/kg and 100 µmol/kg.
For `CNCC=C(c1ccc(Br)cc1)c1cccnc1` [N-methyl-3-(4-bromophenyl)-3-(3-pyridyl)-allylamine Z-isomer, N-methyl-3-(4-bromophenyl)-3-(3-pyridyl)-allylamine, reference compound], the “Inhibition of the uptake in vivo i.p. ED50 5-HT” value in test [1] (setting [6]) is 19 µmol/kg. The “Inhibition of the uptake in vivo i.p. ED50 NA” value in test [2] (setting [6]) was above 102 µmol/kg.
Turning to `Cc1cccc(C(=CC(C)N)c2cccc(C)c2)c1` (stereo not shown) [FLA 618, 3-amino-1,1-di-(3-methylphenyl)-1-butene hydrochloride], the ED50 in test [1] (setting [7]) is 93 µmol/kg; in test [2] (setting [8]) it was 56 µmol/kg.
For `CC(N)CC(c1ccccc1)c1cccc(Br)c1` (stereo not shown) [CPK 155, 3-(3-bromophenyl)-1-methyl-3-phenylpropylamine], in that order: above 95 µmol/kg and 49 µmol/kg.
In the case of `COc1ccc(C(CC(C)N)c2ccccc2)cc1` (single isomer, unassigned) [CPK 160], the “activity on uptake” value in test [4] is given as “pronounced non-selective activity”.
Consider `COc1ccc(C(=CC(C)N)c2ccc(OC)cc2)cc1.O=C(O)/C=C/C(=O)O` (stereo not shown) [FLA 611, 3-amino-1,1-di(4-methoxyphenyl)--1-butene fumarate], for which the results for the ED50 in test [1] (setting [7]) and in test [2] (setting [8]) were 63 µmol/kg and 108 µmol/kg, respectively. Moreover, the “activity on uptake” value in test [4] is “pronounced selective activity on uptake of 5-hydroxytryptamine”.
